Columns and labels:
human S1P1 = target: T1, human S1P1 (Homo sapiens, UniProt P21453); experiment: Internalization effect experiment on S1P1 (CHO-S cells, Myc tag, flow cytometry); type: cell-based
T1 construct: expressed in transfected cells; host or cells: CHO-S cells
Source text: It is well known that S1P1 small molecule agonists can prevent lymphocytes from entering the peripheral circulation by inducing internalization of S1P1 on cell surface. In order to determine whether the compounds provided by present invention have an activity of inducing S1P1 internalization, CHO—S cells expressing human S1P1, to replace the lymphocytes, are used as detection system of S1P1 internalization. For ease of monitoring the S1P1 on cell surface, a Myc tag is fused to N-terminal of S1P1, thus the expression of S1P1 is analyzed by flow cytometry after incubating the cells with fluorescent-labeled antibody against the Myc tag.
A 10 mM stock solution was prepared by dissolving compound 2 provided by the present invention in dimethyl sulfoxide (DMSO), and then the stock solution was diluted to different concentrations as desired with DMEM. CHO—S cells bearing human S1P1 with Myc tag were harvested and then adjusted to a density of one million cells per mL by Dulbecco's modified Eagle's medium (DMEM). Different concentrations of Compound 2 diluted in an equal volume were mixed and the cell suspension and then incubated at 37° C. for 1 hour. After incubation, the mixture was centrifuged at 800 RPM for 5 minutes to obtain the cells. The cells were resuspended in FACS buffer (PBS containing 1% BSA), and Myc antibody labelled with fluorescein isothiocyanate (FITC) (from Californian Miltenyi Biotec GmbH, USA) was added in and incubated for 1 hour on ice. The cells were washed, resuspended in pre-cooled FACS buffer and analysed by FACS Calibur flow cytometry.

[1] = In vivo pharmacokinetic experiment, intravenous administration; design: species or system Sprague Dawley rats
Experimental: (§1) In this Example, the pharmacokinetic properties of compounds 1, 2, 3, 4 and 5 were evaluated via. i.v. and p.o. dosing to Sprague Dawley rats.
(§2) Experimental animals used in this Example and hereinafter were male SD rats of 7-9 weeks old, with body weight ranging from 186 to 231 g, which were purchased from Beijing Vital River Laboratory Animal Technology Co., Ltd. The animals were quarantined by veterinarian for 5 days after purchase, then animals had passed quarantine inspection were selected to be tested under SPE conditions, wherein the tested animals are assigned into 3 rats per group as follows.
Intravenous administration group: 1.61 mg of each of compounds 1-5 was respectively prepared into a solution of 1 mg/mL by using 1.610 mL 10% HP-β-CD as a diluent. Each solution was vortexed 1-2 mins after mixed fully, and then was ultrasonically treated for 28-30 mins. The obtained solution was used as medicine administrated to intravenous administration group, and the administration was conducted with a dose of 1 mL/kg body weight of each rat.
(§3) For both oral administration group and intravenous administration group, blood samples were collected at 0.0833 h (5 min), 0.25 h (15 min), 0.5 h, 1 h, 2 h, 4 h, 8 h, and 24 h after administration. After isoflurane anesthesia 0.3 mL whole blood was collected from orbital venous plexus of the animals at each time point. The animals would be euthanized after all samples were collected.
(§4) The collected blood samples were placed in EP tubes containing heparin sodium (about 10 μl, 1000 IU/mL), which were then placed in trash ice immediately, and centrifuged at 4,000 rpm and a low temperature (4° C.) for 5 minutes. The plasma was isolated rapidly and then stored at −20° C. until analysis.
(§5) The concentration of each compound in blood was measured by LC-MS/MS-001 (Q-trap-3200) with osalmide as internal standard material, as follows. 24 μL blank plasma was added into 6 μL plasma sample (5 times of dilution), and then a solution of acetonitrile containing 150 μL internal standard material (osalmide in 100 μg/mL) was added in. The mixture was shaken for 5 minutes, and then centrifuged at 4,000 rpm for 5 minutes. 2 μL of the obtained sample was implanted into LC-MS/MS for analysis. As for undiluted plasma sample, 30 μL of it was added into a solution of acetonitrile containing 150 μL internal standard material (osalmide in 100 μg/mL). The mixture was shaken for 5 minutes, and then centrifuged at 4,000 rpm for 5 minutes. 2 μL of the obtained sample was implanted into LC-MS/MS for analysis.
(§6) As for data analysis, WinNolin (V6.2) non-compartment model (NCA) was used for calculating main metabolic pharmacokinetic parameters including t1/2, AUC(0−t), AUCinf, V, Cl, MRT, etc., and Microsoft Office EXCEL was used for calculating mean values, standard deviations and coefficients of variation.

[2] = In vivo pharmacokinetic experiment, oral administration; design: species or system Sprague Dawley rats; settings: for half-life: po, 3 mg/kg
Experimental: as §1, §2
Oral administration group: 2.74 mg of each of compounds 1-5 was respectively prepared into a solution of 0.3 mg/mL by using 9.113 mL 0.5% CMC-Na as a diluent. Each solution was vortexed 1-2 mins after mixed fully, and then was ultrasonically treated for 20-30 mins until a uniform suspension was obtained. The uniform suspension was used as medicine administrated to oral administration group, and the administration was conducted with a dose of 10 mL/kg body weight of each rat.
as §3, §4, §5, §6

[3] = intravenous administration, rats, in words
[4] = male, Sprague-Dawley, rat, plasma, intravenous administration (1 mg/kg), SD rats
[5] = male, Sprague-Dawley, rat, plasma, oral administration (3 mg/kg), SD rats

T1 sequence (P21453 whole entry): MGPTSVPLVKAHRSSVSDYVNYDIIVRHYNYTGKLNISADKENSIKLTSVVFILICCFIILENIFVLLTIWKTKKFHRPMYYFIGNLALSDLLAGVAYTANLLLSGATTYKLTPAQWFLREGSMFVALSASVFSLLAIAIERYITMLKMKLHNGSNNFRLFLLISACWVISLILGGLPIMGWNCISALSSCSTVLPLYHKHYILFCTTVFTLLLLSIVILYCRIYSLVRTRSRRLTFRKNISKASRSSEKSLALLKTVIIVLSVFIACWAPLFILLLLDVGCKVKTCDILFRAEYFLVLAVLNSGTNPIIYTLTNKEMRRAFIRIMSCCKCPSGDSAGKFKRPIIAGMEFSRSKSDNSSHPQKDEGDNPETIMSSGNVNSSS

## CC(C)Cc1ccc(-c2nc(-c3ccc(CN4CC(C(=O)O)C4)c(F)c3)no2)cc1 [Compound 2, 1-{2-fluoro-4-[5-(4-isobutylphenyl)-1,2,4-oxadiazol-3-yl]-benzyl}-3-azetidine carboxylic acid]
Human S1P1; CHO-S cells expressing human S1P1, 1 hour at 37° C., read-out: Receptor Internalization (EC50) S1P1
  EC50: 9.83 nM
Human S1P1; CHO-S cells expressing human S1P1, in words
  activity of inducing S1P1 internalization: dose-dependent manner
[1]; [3]
  mean residence time (MRT) compared with compound 1: reduced significantly
  terminal half-life compared with compound 1: reduced significantly
[1]; [4]
  AUC(0-inf): 2010 ± 146 ng·h/mL
  MRT inf: 6.28 ± 0.44 h
  clearance: 8.32 mL/min/kg
[1]; male, Sprague-Dawley, rat, plasma, intravenous administration (1 mg/kg), SD rats, read-out: T½ (converted)
  half-life: 5.47 ± 0.42 h
[1]; male, Sprague-Dawley, rat, plasma, intravenous administration (1 mg/kg), SD rats, read-out: Vss
  Vd: 3.12 ± 0.101 L/kg
[2]; after oral administration, rats
  half-life shortening relative to compound 1: ~50%
[2]; male, Sprague-Dawley, rat, plasma, after oral administration, rats, read-out: terminal half-life (converted)
  half-life: < 5.5 h
[2]; male, Sprague-Dawley, rat, plasma, oral administration (3 mg/kg), SD rats, read-out: T½ (converted)
  half-life: 5.47 ± 0.63 h
[2]; [5]
  AUC(0-inf): 3830 ± 184 ng·h/mL
  Cmax: 341 ± 36.2 ng/mL
  Tmax: 2 h
[2]; oral administration (3 mg/kg), SD rats
  F: 63.4%
[2]; oral administration, rats, FIGS. 1A and 1B, in words
  elimination speed after the highest concentration, compared with compounds 1 and 5: accelerated obviously
